Common to all, as to assay type: cell-based
One assay relates to DNMT1, UHRF1 and HDM2. In words: Immunoblot of USP7 oncogenic substrate levels in Jurkat cells. The conditions noted are these: 20 μg total cell lysate, FIG. 5. The protocol: FIG. 5 graphically illustrates a decrease in USP7 oncogenic substrates DNMT1, UHRF1 and HDM2 levels in Jurkat cells treated with the USP7i compound 1. 20 μg total cell lysates from each sample was separated on 10% SDS-PAGE and immunoblotted with antibodies against DNMT1, UHRF1, HDM2 and Actin (loading control).
(In general: In western blotting, separated proteins are transferred to a membrane and probed.)

The next assay deals with Murine Tregs. In words: Treg suppression assay with CFSE labeled T effector cells (FACS). The conditions noted are these: Murine Tregs pre-treated for 2 hours, washed, incubated with CFSE labeled T effector cells for 3 days; FIG. 6. As for the experimental part:
Murine Tregs were pre-treated with compound 1 for 2 hours, washed and incubated with carboxyfluorescein succinimidyl ester (CFSE) labeled T effector cells at varying concentrations for 3 days. T effector cell proliferation was monitored using FACS analysis. Percentage proliferation is plotted using Graphpad prism.

The target of a further assay is T1, USP7 (Homo sapiens, UniProt Q93009).
T1 construct: followed by DUB activity measurement of immunoprecipitated USP7; endogenous in cells; host or cells: Jurkat cells
T1 sequence (Q93009 whole entry): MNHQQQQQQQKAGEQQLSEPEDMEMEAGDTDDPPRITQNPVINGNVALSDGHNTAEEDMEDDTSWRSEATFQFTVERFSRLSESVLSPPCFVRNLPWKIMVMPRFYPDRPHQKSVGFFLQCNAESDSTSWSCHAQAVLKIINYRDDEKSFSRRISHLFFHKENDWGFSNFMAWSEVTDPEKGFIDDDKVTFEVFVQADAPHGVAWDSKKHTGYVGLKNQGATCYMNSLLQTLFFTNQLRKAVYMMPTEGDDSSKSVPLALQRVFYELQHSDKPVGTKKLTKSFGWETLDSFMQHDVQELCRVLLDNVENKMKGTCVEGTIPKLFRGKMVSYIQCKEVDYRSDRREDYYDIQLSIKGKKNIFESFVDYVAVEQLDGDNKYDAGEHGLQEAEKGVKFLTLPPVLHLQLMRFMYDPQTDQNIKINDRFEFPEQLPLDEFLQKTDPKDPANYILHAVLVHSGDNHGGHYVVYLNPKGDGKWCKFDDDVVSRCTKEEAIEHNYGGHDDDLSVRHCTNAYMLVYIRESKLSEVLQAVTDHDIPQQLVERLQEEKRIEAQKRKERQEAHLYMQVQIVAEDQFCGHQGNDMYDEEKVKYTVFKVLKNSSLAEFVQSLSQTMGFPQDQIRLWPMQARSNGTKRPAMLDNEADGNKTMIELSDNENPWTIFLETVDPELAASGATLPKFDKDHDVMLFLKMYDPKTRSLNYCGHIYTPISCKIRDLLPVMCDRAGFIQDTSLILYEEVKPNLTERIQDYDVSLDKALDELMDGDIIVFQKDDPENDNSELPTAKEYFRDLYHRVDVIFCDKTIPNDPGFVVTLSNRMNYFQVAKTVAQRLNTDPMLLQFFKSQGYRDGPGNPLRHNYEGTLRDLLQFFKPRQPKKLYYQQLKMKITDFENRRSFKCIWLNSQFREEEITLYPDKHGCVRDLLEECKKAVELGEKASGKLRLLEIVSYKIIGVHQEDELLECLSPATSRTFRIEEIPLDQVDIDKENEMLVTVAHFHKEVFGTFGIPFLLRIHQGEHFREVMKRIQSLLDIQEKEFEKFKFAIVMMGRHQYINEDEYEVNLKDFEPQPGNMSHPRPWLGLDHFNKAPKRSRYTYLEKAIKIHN
Nature of the assay: DUB activity of USP7 immunoprecipitated from pulse-treated Jurkat cells (Ub-EKL assay). The conditions noted are these: Jurkat cells pulse treated with 10 μM-0.1 μM for 2 hours, FIG. 4A-4B. The protocol: Jurkat cells were pulse treated with doses ranging from 10 μM-0.1 μM of compound 1 or DMSO as vehicle control for 2 hours followed by DUB activity measurement of immunoprecipitated USP7 (FIG. 4A) as well as total cell lysate (FIG. 4B) using Ub-EKL assay (U.S. Pat. No. 8,680,139). A portion of the immunoprecipitated USP7 is separated on 10% SDS-PAGE and immunoblotted with anti-USP7 antibody to detect the level of USP7 protein (shown at the top of graphs in FIG. 4A).

The values below come from US11273154B2, “Azole compounds as ubiquitin-specific protease USP7 inhibitors” (PROGENRA, INC., priority 2017, dated 2022).

Each structure is given as a SMILES string.

Consider `O=C(Nc1ccc2c(c1)S(=O)(=O)C=C2)c1nnc(Sc2c(Cl)cncc2Cl)s1` [compound 1, 5-((3,5-dichloropyridin-4-yl)thio)-N-(1,1-dioxido-2,3-benzo[b]thiophen-6-yl)-1,3,4-thiadiazole-2-carboxamide], for which the “USP7 oncogenic substrates DNMT1, UHRF1 and HDM2 levels” value in the assay with DNMT1, UHRF1 and HDM2 was “decrease”. Further, the “Treg functions (T effector cell proliferation)” value in the assay on Murine Tregs was “inhibition of Treg functions”. Moreover, the “mode of USP7 inhibition (DUB activity of immunoprecipitated USP7 after pulse treatment)” value on USP7 was “irreversible inhibitors”.
